Key:
Format in all cases: functional
NCI-H322M [1] = experiment: Cytotoxicity against human NCI-H322M cells assessed as cellular growth at 1 uM after 48 hrs by SRB assay relative to control
MDA-MB-231 = experiment: Cytotoxicity against human MDA-MB-231 cells assessed as cellular growth at 1 uM after 48 hrs by SRB assay relative to control
T47D = experiment: Cytotoxicity against human T47D cells assessed as cellular growth at 1 uM after 48 hrs by SRB assay relative to control
UACC-257 = experiment: Cytotoxicity against human UACC257 cells assessed as cellular growth at 100 uM after 48 hrs by SRB assay relative to control
IGROV-1 = experiment: Cytotoxicity against human IGROV1 cells assessed as cellular growth at 0.01 uM after 48 hrs by SRB assay relative to control
A498 = experiment: Cytotoxicity against human A498 cells after 48 hrs by SRB assay; details: A498, 48 h
UACC-62 = experiment: Cytotoxicity against human UACC62 cells assessed as cellular growth at 100 uM after 48 hrs by SRB assay relative to control
HOP-62 [2] = experiment: Cytotoxicity against human HOP62 cells assessed as cellular growth at 0.1 uM after 48 hrs by SRB assay relative to control
OVCAR-8 = experiment: Cytotoxicity against human OVCAR8 cells after 48 hrs by SRB assay; details: OVCAR-8, 48 h
HOP-62 [3] = experiment: Cytotoxicity against human HOP62 cells assessed as cellular growth at 10 uM after 48 hrs by SRB assay relative to control
SW-620 = experiment: Cytotoxicity against human SW620 cells assessed as cellular growth at 0.1 uM after 48 hrs by SRB assay relative to control
NCI-H23 [4] = experiment: Cytotoxicity against human NCI-H23 cells assessed as cellular growth at 0.01 uM after 48 hrs by SRB assay relative to control
SN12C [5] = experiment: Cytotoxicity against human SN12C cells after 48 hrs by SRB assay
NCI-H460 [6] = experiment: Cytotoxicity against human NCI-H460 cells after 48 hrs by SRB assay; details: NCI-H460, 48 h
NCI-H23 [7] = experiment: Cytotoxicity against human NCI-H23 cells assessed as cellular growth at 100 uM after 48 hrs by SRB assay relative to control
SN12C [8] = experiment: Cytotoxicity against human SN12C cells assessed as cellular growth at 0.1 uM after 48 hrs by SRB assay relative to control
SK-OV-3 = experiment: Cytotoxicity against human SKOV3 cells assessed as cellular growth at 0.01 uM after 48 hrs by SRB assay relative to control
NCI-H226 = experiment: Cytotoxicity against human NCI-H226 cells assessed as cellular growth at 100 uM after 48 hrs by SRB assay relative to control
HCT-116 [9] = experiment: Cytotoxicity against human HCT116 cells assessed as cellular growth at 100 uM after 48 hrs by SRB assay relative to control
NCI-H322M [10] = experiment: Cytotoxicity against human NCI-H322M cells assessed as cellular growth at 0.01 uM after 48 hrs by SRB assay relative to control
CCRF-CEM = experiment: Cytotoxicity against human CCRF-CEM cells assessed as cellular growth at 100 uM after 48 hrs by SRB assay relative to control
HL-60(TB) = experiment: Cytotoxicity against human HL-60(TB) cells after 48 hrs by SRB assay; details: HL-60, 48 h
BT-549 = experiment: Cytotoxicity against human BT549 cells assessed as cellular growth at 1 uM after 48 hrs by SRB assay relative to control
SNB-75 = experiment: Cytotoxicity against human SNB75 cells assessed as cellular growth at 1 uM after 48 hrs by SRB assay relative to control
MDA-MB-468 = experiment: Cytotoxicity against human MDA-MB-468 cells assessed as cellular growth at 1 uM after 48 hrs by SRB assay relative to control
OVCAR-5 = experiment: Cytotoxicity against human OVCAR5 cells assessed as cellular growth at 0.1 uM after 48 hrs by SRB assay relative to control
HOP-92 [11] = experiment: Cytotoxicity against human HOP92 cells assessed as cellular growth at 100 uM after 48 hrs by SRB assay relative to control
HCT-116 [12] = experiment: Cytotoxicity against human HCT116 cells assessed as cellular growth at 0.1 uM after 48 hrs by SRB assay relative to control
RXF 393 = experiment: Cytotoxicity against human RXF393 cells assessed as cellular growth at 0.01 uM after 48 hrs by SRB assay relative to control
OVCAR-4 = experiment: Cytotoxicity against human OVCAR4 cells assessed as cellular growth at 100 uM after 48 hrs by SRB assay relative to control
HCT-15 = experiment: Cytotoxicity against human HCT15 cells assessed as cellular growth at 1 uM after 48 hrs by SRB assay relative to control
NCI-H460 [13] = experiment: Cytotoxicity against human NCI-H460 cells assessed as cellular growth at 1 uM after 48 hrs by SRB assay relative to control
SK-MEL-5 = experiment: Cytotoxicity against human SK-MEL-5 cells assessed as cellular growth at 1 uM after 48 hrs by SRB assay relative to control
DU-145 = experiment: Cytotoxicity against human DU145 cells assessed as cellular growth at 100 uM after 48 hrs by SRB assay relative to control
M14 = experiment: Cytotoxicity against human M14 cells assessed as cellular growth at 0.01 uM after 48 hrs by SRB assay relative to control
HOP-92 [14] = experiment: Cytotoxicity against human HOP92 cells after 48 hrs by SRB assay; details: HOP-92, 48 h
SF-295 = experiment: Cytotoxicity against human SF295 cells assessed as cellular growth at 0.1 uM after 48 hrs by SRB assay relative to control
[15] = read-out: LC50 (the source's name)
[16] = read-out: pLC50 (the source's name) (converted)

`O=C(CCCn1c2c(sc3ccccc32)c(=O)n2nnc(-c3ccccc3)c12)NCCc1c[nH]cn1` gave an Activity (NCI-H322M [1]) of 90%, an Activity (MDA-MB-231) of 101% and an Activity (T47D) of 57%. It also gave an Activity (UACC-257) of -80%, an Activity (IGROV-1) of 101% and a GI50 (A498; read-out: GI50) of 1.09 µM. It also gave a CC50 (A498; [15]) of 5.61 µM, a TGI (A498; read-out: TGI) of 2.47 µM and a GI50 (A498; read-out: pGI50 (converted)) of 1.1 µM. It also gave a CC50 (A498; [16]) of 5.62 µM, a TGI (A498; read-out: pTGI (converted)) of 2.45 µM and an Activity (UACC-62) of -100%. The Activity (HOP-62 [2]) was 80%, the GI50 (OVCAR-8; read-out: GI50) was < 0.01 µM and the CC50 (OVCAR-8; [15]) was > 100 µM. For the same compound, the TGI (OVCAR-8; read-out: TGI) was 2.99 µM, the GI50 (OVCAR-8; read-out: pGI50 (converted)) was 0.01 µM and the CC50 (OVCAR-8; read-out: pLC50 (converted)) was > 100 µM. For the same compound, the TGI (OVCAR-8; read-out: pTGI (converted)) was 3.02 µM, the Activity (HOP-62 [3]) was -79% and the Activity (SW-620) was 29%. The Activity (NCI-H23 [4]) was 92%, the GI50 (SN12C [5]; read-out: GI50) was 0.011 µM and the CC50 (SN12C [5]; [15]) was 5.51 µM. For the same compound, the TGI (SN12C [5]; read-out: TGI) was 2.03 µM, the GI50 (SN12C [5]; read-out: pGI50 (converted)) was 0.011 µM and the CC50 (SN12C [5]; [16]) was 5.5 µM. For the same compound, the TGI (SN12C [5]; read-out: pTGI (converted)) was 2.04 µM, the GI50 (NCI-H460 [6]; read-out: GI50) was 1.59 µM and the TGI (NCI-H460 [6]; read-out: TGI) was 3.95 µM. It also gave a GI50 (NCI-H460 [6]; read-out: pGI50 (converted)) of 1.58 µM, a TGI (NCI-H460 [6]; read-out: pTGI (converted)) of 3.98 µM and an Activity (NCI-H23 [7]) of -38%. It also gave an Activity (SN12C [8]) of 40%, an Activity (SK-OV-3) of 108% and an Activity (NCI-H226) of -72%. The Activity (HCT-116 [9]) was 3%, the Activity (NCI-H322M [10]) was 104% and the Activity (CCRF-CEM) was -100%. The GI50 (HL-60(TB); read-out: GI50) was 0.0724 µM, the CC50 (HL-60(TB); [15]) was 22.7 µM and the TGI (HL-60(TB); read-out: TGI) was 3.21 µM. It also gave a GI50 (HL-60(TB); read-out: pGI50 (converted)) of 0.0724 µM, a CC50 (HL-60(TB); [16]) of 22.9 µM and a TGI (HL-60(TB); read-out: pTGI (converted)) of 3.24 µM. It also gave an Activity (BT-549) of 100%, an Activity (SNB-75) of 107% and an Activity (MDA-MB-468) of 8%. It also gave an Activity (OVCAR-5) of 36%, an Activity (HOP-92 [11]) of -50% and an Activity (HCT-116 [12]) of 4%. It also gave an Activity (RXF 393) of 118%, an Activity (OVCAR-4) of -87% and an Activity (HCT-15) of 29%. It also gave an Activity (NCI-H460 [13]) of 75%, an Activity (SK-MEL-5) of 70% and an Activity (DU-145) of -100%. The Activity (M14) was 108%, the GI50 (HOP-92 [14]; read-out: GI50) was 4.06 µM and the CC50 (HOP-92 [14]; [15]) was > 100 µM. The TGI (HOP-92 [14]; read-out: TGI) was 20.5 µM, the GI50 (HOP-92 [14]; read-out: pGI50 (converted)) was 4.07 µM and the CC50 (HOP-92 [14]; [16]) was > 100 µM. For the same compound, the TGI (HOP-92 [14]; read-out: pTGI (converted)) was 20.4 µM and the Activity (SF-295) was 70%.

`CN1CCN(CCCn2c3c(sc4ncccc43)c(=O)n3nnc(-c4ccccc4)c23)CC1` gave an Activity (NCI-H322M [1]) of 90%, an Activity (MDA-MB-231) of 87% and an Activity (T47D) of 103%. The Activity (UACC-257) was -87%, the Activity (IGROV-1) was 102% and the GI50 (A498; read-out: GI50) was 11.2 µM. It also gave a CC50 (A498; [15]) of 52.3 µM, a TGI (A498; read-out: TGI) of 24.2 µM and a GI50 (A498; read-out: pGI50 (converted)) of 11.2 µM. It also gave a CC50 (A498; [16]) of 52.5 µM, a TGI (A498; read-out: pTGI (converted)) of 24 µM and an Activity (UACC-62) of -74%. The Activity (HOP-62 [2]) was 84%, the GI50 (OVCAR-8; read-out: GI50) was 1.93 µM and the CC50 (OVCAR-8; [15]) was > 100 µM. For the same compound, the TGI (OVCAR-8; read-out: TGI) was 4.49 µM, the GI50 (OVCAR-8; read-out: pGI50 (converted)) was 1.95 µM and the CC50 (OVCAR-8; read-out: pLC50 (converted)) was > 100 µM. The TGI (OVCAR-8; read-out: pTGI (converted)) was 4.47 µM, the Activity (HOP-62 [3]) was -90% and the Activity (SW-620) was 89%. For the same compound, the Activity (NCI-H23 [4]) was 100%, the GI50 (SN12C [5]; read-out: GI50) was 1.81 µM and the TGI (SN12C [5]; read-out: TGI) was 4.07 µM. It also gave a GI50 (SN12C [5]; read-out: pGI50 (converted)) of 1.82 µM, a TGI (SN12C [5]; read-out: pTGI (converted)) of 4.07 µM and a GI50 (NCI-H460 [6]; read-out: GI50) of 1.92 µM. The CC50 (NCI-H460 [6]; [15]) was 8.13 µM, the TGI (NCI-H460 [6]; read-out: TGI) was 3.95 µM and the GI50 (NCI-H460 [6]; read-out: pGI50 (converted)) was 1.91 µM. For the same compound, the CC50 (NCI-H460 [6]; [16]) was 8.13 µM, the TGI (NCI-H460 [6]; read-out: pTGI (converted)) was 3.98 µM and the Activity (NCI-H23 [7]) was -59%. It also gave an Activity (SN12C [8]) of 88%, an Activity (SK-OV-3) of 101% and an Activity (NCI-H226) of -79%. For the same compound, the Activity (HCT-116 [9]) was -64%, the Activity (NCI-H322M [10]) was 97% and the Activity (CCRF-CEM) was -49%. It also gave a GI50 (HL-60(TB); read-out: GI50) of 1.86 µM, a CC50 (HL-60(TB); [15]) of 9.05 µM and a TGI (HL-60(TB); read-out: TGI) of 4.1 µM. It also gave a GI50 (HL-60(TB); read-out: pGI50 (converted)) of 1.86 µM, a CC50 (HL-60(TB); [16]) of 9.12 µM and a TGI (HL-60(TB); read-out: pTGI (converted)) of 4.07 µM. The Activity (BT-549) was 97%, the Activity (SNB-75) was 66% and the Activity (MDA-MB-468) was 101%. It also gave an Activity (OVCAR-5) of 102%, an Activity (HOP-92 [11]) of -67% and an Activity (HCT-116 [12]) of 96%. The Activity (RXF 393) was 100%, the Activity (OVCAR-4) was -70% and the Activity (HCT-15) was 89%. It also gave an Activity (NCI-H460 [13]) of 95%, an Activity (SK-MEL-5) of 93% and an Activity (DU-145) of -88%. The Activity (M14) was 97%, the GI50 (HOP-92 [14]; read-out: GI50) was 6.31 µM and the CC50 (HOP-92 [14]; [15]) was 70.1 µM. It also gave a TGI (HOP-92 [14]; read-out: TGI) of 24.3 µM, a GI50 (HOP-92 [14]; read-out: pGI50 (converted)) of 6.31 µM and a CC50 (HOP-92 [14]; [16]) of 70.8 µM. The TGI (HOP-92 [14]; read-out: pTGI (converted)) was 24.5 µM and the Activity (SF-295) was 94%.
